Measured values: patent publication US5849729A, “Use of hydrolyzed cocoa butter for percutaneous absorption” (Hershey Foods Corporation, priority 1995, dated 1998)
Several values for one entry are separate records, joined by “and”; a condition that tells them apart may be missing. Identical values can stand only once. Entries after “also recorded” stand apart in the source; their conditions may differ. Like-named read-outs stand apart in the source and are kept apart here.

Key:
[1] = cited from earlier work
[2] = In-vitro percutaneous absorption of retinoic acid and triamcinolone acetonide from two cocoa butter vehicles (Franz cells, 48 h); conditions: for Penet (Total Penetration) / % Abs (% Absorbed) / Total Penetration / % Absorbed / total absorption: 48 h; for % Abs (% Absorbed) / % Absorbed / total absorption: percent of applied dose
Source text: The objective of this study was to measure the permeation of retinoic acid and triamcinolone acetonide through human skin in-vitro from two cocoa butter vehicles.
Two cocoa butter vehicles supplied by Hershey Foods Corporation were utilized: (1) pure cocoa butter and (2) partially hydrolyzed cocoa butter emulsion. Radioactive [11,12-^3 H] [retinoic acid (NET 920, Lot 2930-067, specific activity 1 mCi/ml) and [6,7-^3 H]-triamcinolone acetonide (NET 470, Lot 2904-170, specific activity 1 mCi/ml) were obtained from Dupont-New England Nuclear Corporation, Boston, Mass.
Each of the two cocoa butter vehicles was spiked separately with ^3 H-retinoic acid and ^3 H-Triamcinolone acetonide to give a total of four radioactive formulations for study. This was done by adding 25 μl (containing 25 μCi) of each tracer solution to approximately 1 gram of each vehicle and mixing with the tip of the dispensing micropipette. The pure cocoa butter vehicle was liquified by holding it under warm tap water prior to spiking. This was not done with the partially hydrolyzed cocoa butter emulsion. Neither formulation was used for three days after spiking to allow for diffusional mixing to take place. Final radioactive concentrations of each formulation were: […]
Human trunk skin without obvious signs of disease was used throughout. It was obtained within 24 hours of death, dermatomed to a thickness of approximately 0.25 mm, cryopreserved and sealed in water vapor-impermeableplastic bags. It was stored at -70° C. until the day of use then thawed by placing the bag in 37° C. water.
Skin from a single donor was cut into multiple sections large enough to fit on 0.8 cm^2 Franz cells. The dermal chamber was filled with isotonic saline, pH 7.4, into which a small magnetic stirring bar was placed. The epidermal chamber was left open to the ambient laboratory environment, approximately 22° C. and 40-60% RH. The cells were placed in a diffusion apparatus in which the dermal receptor solution was stirred magnetically at 600 RPM and its temperature maintained at 37° C.
To assure the integrity of each skin section, its permeability to tritiated water was determined before application of the test formulations. Following a brief (0.5-1 hour) equilibration period, 150 μl ^3 H2 O (specific activity 0.3 μCi/ml) was layered across the top of the skin section so that the entire exposed surface was covered. After 5 minutes the aqueous layer was removed and the surface of the skin carefully blotted dry. At t=0.5 hour the saline receptor phase was removed and analyzed for radioactive content by liquid scintillation counting. Skin specimens in which absorption of ^3 H2 O was less than 1.25 μl were considered acceptable.
Subsequently, each test formulation was applied at a target dose of 10 mg (cream) or 10 μl (butter). The cream formulation (partially hydrolyzed cocoa butter emulsion) was applied from the smooth, rounded-tip of a glass rod, the exact amount determined by weighing the rod before and after application. The butter formulation (pure cocoa butter) was first liquified under warm tap water, allowed to cool to room temperature, then applied with a 10 μl positive displacement micropipette prior to resolidifying. At 4, 8, 12, 24, 36 and 48 hours the receptor solution was removed in its entirety, replaced with fresh solution, and a 1 ml aliquot taken and assayed for radioactive content by liquid scintillation counting.
A 1 ml aliquot of each receptor sample containing ^3 H2 O, ^3 H-retinoic acid, or ^3 H-triamcinolone acetonide was placed in a 7 ml glass scintillation vial and gelled by the addition of 5 ml Opti-Fluor (Packard Instrument Co., Meriden, Conn.). These were counted in a Packard Tri-Carb Model 1900CA Liquid scintillation Analyzer equipped with internal standard and automatic quench correction.

[3] = butter (pure cocoa butter), individual skin sections, listed as TRIAMINOLONE ACETONIDE
[4] = butter, average of three donors
[5] = cream (partially hydrolyzed cocoa butter emulsion), individual skin sections, listed as TRIAMINOLONE ACETONIDE

In the case of `CN(C)C=O` [Dimethylformamide], the side effects ([1]; topical use, in words) is listed as “a sensation of burning and erythema on the skin”.

In the case of `C[S+](C)[O-]` [dimethyl sulfoxide], the side effects ([1]; topical use, in words) is given as “a foul taste and body odor, burning and erythema on the skin; a reduction in the relucency of the lens cortex and tissue necrosis”.

For `CNC(C)=O` [methylacetamide], the side effects ([1]; in vivo) is given as “a sensation of burning and erythema on the skin”.

In the case of `CC1(C)O[C@@H]2C[C@H]3[C@@H]4CCC5=CC(=O)C=C[C@]5(C)[C@@]4(F)[C@@H](O)C[C@]3(C)[C@]2(C(=O)CO)O1` [triamcinolone acetonide], the “rate of absorption profile / flux” value ([2]; both cocoa butter formulations, in words) is reported as “absorption continues to increase at a slow rate; also recorded: relatively high flux rates”, the “Penet (Total Penetration)” value [2, 3] is reported as 524.71 and 252.43 and 268.51 and 390.54 and 1505.05 and 2037.47 and 2111.25 and 1993.70 and 1506.22 and 770.57 and 821.16 and 931.82 and the “% Abs (% Absorbed)” value [2, 3] is reported as 5.24% and 2.52% and 2.86% and 3.90% and 15.04% and 20.36% and 21.10% and 19.92% and 15.05% and 7.70% and 8.21% and 9.31%. For the same compound, the “Rate of absorption, R1” value ([2]; butter (pure cocoa butter), sample R1, mid-t 2 h, individual skin sections, listed as TRIAMINOLONE ACETONIDE) was 4.39 ng/cm^2 /hr and 1.60 ng/cm^2 /hr and 4.85 ng/cm^2 /hr and 2.94 ng/cm^2 /hr and 5.03 ng/cm^2 /hr and 5.86 ng/cm^2 /hr and 13.93 ng/cm^2 /hr and 14.30 ng/cm^2 /hr and 10.13 ng/cm^2 /hr and 6.97 ng/cm^2 /hr and 3.85 ng/cm^2 /hr and 4.31 ng/cm^2 /hr, the “Rate of absorption, R3” value ([2]; butter (pure cocoa butter), sample R3, mid-t 10 h, individual skin sections, listed as TRIAMINOLONE ACETONIDE) was 4.10 ng/cm^2 /hr and 1.98 ng/cm^2 /hr and 3.21 ng/cm^2 /hr and 1.85 ng/cm^2 /hr and 39.10 ng/cm^2 /hr and 54.60 ng/cm^2 /hr and 49.52 ng/cm^2 /hr and 41.58 ng/cm^2 /hr and 31.25 ng/cm^2 /hr and 11.42 ng/cm^2 /hr and 13.09 ng/cm^2 /hr and 17.61 ng/cm^2 /hr and the “Rate of absorption, R4” value ([2]; butter (pure cocoa butter), sample R4, mid-t 18 h, individual skin sections, listed as TRIAMINOLONE ACETONIDE) was 10.64 ng/cm^2 /hr and 4.64 ng/cm^2 /hr and 5.65 ng/cm^2 /hr and 6.96 ng/cm^2 /hr and 41.81 ng/cm^2 /hr and 61.91 ng/cm^2 /hr and 60.58 ng/cm^2 /hr and 63.34 ng/cm^2 /hr and 42.50 ng/cm^2 /hr and 16.59 ng/cm^2 /hr and 19.25 ng/cm^2 /hr and 21.60 ng/cm^2 /hr. For the same compound, the “Rate of absorption, R5” value ([2]; butter (pure cocoa butter), sample R5, mid-t 30 h, individual skin sections, listed as TRIAMINOLONE ACETONIDE) was 16.77 ng/cm^2 /hr and 7.47 ng/cm^2 /hr and 7.89 ng/cm^2 /hr and 11.61 ng/cm^2 /hr and 44.77 ng/cm^2 /hr and 55.96 ng/cm^2 /hr and 68.48 ng/cm^2 /hr and 56.67 ng/cm^2 /hr and 44.03 ng/cm^2 /hr and 24.96 ng/cm^2 /hr and 28.20 ng/cm^2 /hr and 30.50 ng/cm^2 /hr, the “Rate of absorption, R6” value ([2]; butter (pure cocoa butter), sample R6, mid-t 42 h, individual skin sections, listed as TRIAMINOLONE ACETONIDE) was 23.72 ng/cm^2 /hr and 12.43 ng/cm^2 /hr and 12.16 ng/cm^2 /hr and 19.97 ng/cm^2 /hr and 48.08 ng/cm^2 /hr and 65.20 ng/cm^2 /hr and 60.71 ng/cm^2 /hr and 62.32 ng/cm^2 /hr and 49.91 ng/cm^2 /hr and 30.50 ng/cm^2 /hr and 30.09 ng/cm^2 /hr and 34.64 ng/cm^2 /hr and the “Total Penetration” value [2, 4] was 1094.29. For the same compound, the “Rate of absorption, R1” value ([2]; butter, R1, mid-t 2 h, average of three donors) was 6.52 ng/cm^2 /hr, the “Rate of absorption, R3” value ([2]; butter, R3, mid-t 10 h, average of three donors) was 22.44 ng/cm^2 /hr and the “Rate of absorption, R4” value ([2]; butter, R4, mid-t 18 h, average of three donors) was 29.62 ng/cm^2 /hr. For the same compound, the “Rate of absorption, R5” value ([2]; butter, R5, mid-t 30 h, average of three donors) was 33.11 ng/cm^2 /hr, the “Rate of absorption, R6” value ([2]; butter, R6, mid-t 42 h, average of three donors) was 37.48 ng/cm^2 /hr and the “% Absorbed / total absorption” value [2, 4] was 10.9%. The “% Absorbed / total absorption” value ([2]; butter, average of three donors, listed as Triamcinalone) was 10.93%, the “rate of absorption, cream versus butter” value ([2]; comparison of both formulations, in words) was “The cream formulation gives a slightly higher rate of absorption than the butter” and the “Penet (Total Penetration)” value [2, 5] was 254.48 and 668.59 and 249.45 and 118.36 and 2508.36 and 2312.05 and 2871.31 and 2499.51 and 947.51 and 935.57 and 1068.65 and 1271.22. For the same compound, the “% Abs (% Absorbed)” value [2, 5] was 2.49% and 6.22% and 2.57% and 1.23% and 19.85% and 17.85% and 23.91% and 21.77% and 9.37% and 8.49% and 9.22% and 13.72%, the “Rate of absorption, R1” value ([2]; cream (partially hydrolyzed cocoa butter emulsion), sample R1, mid-t 2 h, individual skin sections, listed as TRIAMINOLONE ACETONIDE) was 3.04 ng/cm^2 /hr and 1.67 ng/cm^2 /hr and 5.26 ng/cm^2 /hr and 1.52 ng/cm^2 /hr and 18.29 ng/cm^2 /hr and 17.50 ng/cm^2 /hr and 18.71 ng/cm^2 /hr and 12.90 ng/cm^2 /hr and 4.30 ng/cm^2 /hr and 2.33 ng/cm^2 /hr and 15.97 ng/cm^2 /hr and 3.83 ng/cm^2 /hr and the “Rate of absorption, R3” value ([2]; cream (partially hydrolyzed cocoa butter emulsion), sample R3, mid-t 10 h, individual skin sections, listed as TRIAMINOLONE ACETONIDE) was 3.36 ng/cm^2 /hr and 3.23 ng/cm^2 /hr and 5.64 ng/cm^2 /hr and 0.96 ng/cm^2 /hr and 59.17 ng/cm^2 /hr and 56.60 ng/cm^2 /hr and 68.40 ng/cm^2 /hr and 55.15 ng/cm^2 /hr and 21.00 ng/cm^2 /hr and 18.75 ng/cm^2 /hr and 20.37 ng/cm^2 /hr and 22.71 ng/cm^2 /hr. The “Rate of absorption, R4” value ([2]; cream (partially hydrolyzed cocoa butter emulsion), sample R4, mid-t 18 h, individual skin sections, listed as TRIAMINOLONE ACETONIDE) was 5.74 ng/cm^2 /hr and 12.44 ng/cm^2 /hr and 6.13 ng/cm^2 /hr and 2.07 ng/cm^2 /hr and 63.18 ng/cm^2 /hr and 60.43 ng/cm^2 /hr and 79.96 ng/cm^2 /hr and 72.84 ng/cm^2 /hr and 26.40 ng/cm^2 /hr and 25.54 ng/cm^2 /hr and 27.04 ng/cm^2 /hr and 31.56 ng/cm^2 /hr, the “Rate of absorption, R5” value ([2]; cream (partially hydrolyzed cocoa butter emulsion), sample R5, mid-t 30 h, individual skin sections, listed as TRIAMINOLONE ACETONIDE) was 7.24 ng/cm^2 /hr and 17.67 ng/cm^2 /hr and 6.59 ng/cm^2 /hr and 3.75 ng/cm^2 /hr and 73.13 ng/cm^2 /hr and 69.96 ng/cm^2 /hr and 81.15 ng/cm^2 /hr and 70.51 ng/cm^2 /hr and 30.37 ng/cm^2 /hr and 30.85 ng/cm^2 /hr and 35.59 ng/cm^2 /hr and 41.22 ng/cm^2 /hr and the “Rate of absorption, R6” value ([2]; cream (partially hydrolyzed cocoa butter emulsion), sample R6, mid-t 42 h, individual skin sections, listed as TRIAMINOLONE ACETONIDE) was 10.49 ng/cm^2 /hr and 37.33 ng/cm^2 /hr and 7.93 ng/cm^2 /hr and 5.35 ng/cm^2 /hr and 83.06 ng/cm^2 /hr and 70.37 ng/cm^2 /hr and 91.88 ng/cm^2 /hr and 81.89 ng/cm^2 /hr and 28.80 ng/cm^2 /hr and 30.03 ng/cm^2 /hr and 32.01 ng/cm^2 /hr and 46.16 ng/cm^2 /hr. For the same compound, the “Total Penetration” value ([2]; cream, average of three donors) was 1308.76, the “% Absorbed / total absorption” value ([2]; cream, average of three donors) was 11.4% and the “% Absorbed / total absorption” value ([2]; cream, average of three donors, listed as Triamcinalone) was 11.39%. For the same compound, the “difference between partially hydrolyzed cocoa butter emulsion and pure cocoa butter as delivery vehicle” value ([2]; in words) was “no appreciable difference” and the average absorption ([2]; with cocoa butter and partially hydrolyzed cocoa butter emulsion (both vehicles)) was “about 11%”.
